Assay results published in patent US20240390377A1, “COMPOSITION FOR THE PREVENTION OR TREATMENT OF NEURODEGENERATIVE OR MOTOR NEURON DISEASES COMPRISING HALOFUGINONE AS AN ACTIVE INGREDIENT” (CURAMYS CO., LTD., priority 2022, published 2024).

Key:
[1] = test system: G93A mutant SOD1 mouse-derived fibroblasts; assay: Western blot analysis of ALS animal model-derived fibroblasts; type: cell-based; conditions: low or high concentration halofuginone for 24 hours; elevation vs Non-TG fibroblasts (FIG. 5b)
Excerpt: Specifically, primary fibroblasts were isolated from skeletal muscle of 120-day-old non-transformed or G93A mutant SOD1 transgenic mice of Example 4. The excised tissue was placed on 100-mm culture dishes containing HBSS (Hanks' Balanced Salt Solution; Gibco, cat #14175095) and penicillin-streptomycin (Cat #15070-063, Thermo Fisher Scientific) without calcium and magnesium. Muscle tissue was cut on ice blocks. Then, the tissue was cut into 1 mm pieces and enzymatically reacted with 0.2% IV type collagenase (Sigma) at 37° C. for 1 hour. The enzymatic reaction was stopped by the addition of 10 ml of FBS (Gibco). The tissue mixture was centrifuged at 1,800 rpm at 4° C. for 5 min and resuspended with DMEM medium (Welgene) with 10% FBS. Cells were filtered through a 70 μm cell filter (BD Biosciences, San Jose, CA) and incubated in 0.2% gelatin-coated plates with DMEM medium with 10% FBS, 1% penicillin-streptomycin. Then, halofuginone was treated in the same manner as described in Example 1.
Specifically, the lumbar spinal cord or knee joint of the mouse of Example 6 was separated and immediately frozen at −80° C. Each lumbar spinal cord or knee joint was then homogenized and chemically treated to obtain cells. The chemically treated cells, the C2C12 cells of Example 1 or the fibroblasts of Example 5 were dissolved in a RIPA buffer (Thermo, MA, USA) with a protease inhibitor and a phosphatase inhibitor (Roche, IN, USA) and incubated on ice for 30 minutes. After centrifugation of the lysate at 13,000 rpm at 4° C. for 20 min, insoluble substances were removed. Protein concentrations were measured by BCA analysis (Pierce Biotechnology). Equal volumes of cell lysate were loaded onto SDS-PAGE gels for electrophoresis, and transferred onto nitrocellulose membranes (Amersham Protran 0.2 um NC, Amersham Pharmacia Biotech, Piscataway, NJ, USA). The membranes were then blocked with 5% (w/v) skimmilk in 1×TBST for 1 h at room temperature. […] The membranes were then washed, briefly incubated with the SuperSignal West Pico Plus Chemical Substructure (Pierce Biotechnology) according to the manufacturer's procedure, and quantified with an image analyzer (Amersham Pharmacia Biotech, Piscataway, NJ, USA). β-actin was used as an internal control group. The concentration measurement of protein intensity was quantified using Image J (National Institutes of Health). […]

[2] = test system: G93A mutant SOD1 transgenic mice; assay: Western blot analysis of knee joint tissue in ALS animal model; type: in vivo, mouse; conditions: 120 days old; compared to DMSO non-TG mice
Experimental: As a control group, non-transgenic mice were injected intraperitoneally (i.p.) with vehicle (DMSO) in the same manner for the same period of time.
Specifically, the lumbar spinal cord or knee joint of the mouse of Example 6 was separated and immediately frozen at −80° C. Each lumbar spinal cord or knee joint was then homogenized and chemically treated to obtain cells. The chemically treated cells, the C2C12 cells of Example 1 or the fibroblasts of Example 5 were dissolved in a RIPA buffer (Thermo, MA, USA) with a protease inhibitor and a phosphatase inhibitor (Roche, IN, USA) and incubated on ice for 30 minutes. After centrifugation of the lysate at 13,000 rpm at 4° C. for 20 min, insoluble substances were removed. Protein concentrations were measured by BCA analysis (Pierce Biotechnology). Equal volumes of cell lysate were loaded onto SDS-PAGE gels for electrophoresis, and transferred onto nitrocellulose membranes (Amersham Protran 0.2 um NC, Amersham Pharmacia Biotech, Piscataway, NJ, USA). The membranes were then blocked with 5% (w/v) skimmilk in 1×TBST for 1 h at room temperature. After blocking, anti-RB-actin antibody (1:5000; Santa Cruz, cat #sc47778), anti-Smad2 antibody (1:1000; Cell Signaling, cat #5339), anti-p-Smad2 antibody (1:1000; Cell Signaling, cat #3108), anti-TGF-β1 antibody (1:1000; Santa Cruz, cat #sc130348), anti-α-SMA antibody (1:10000; abcam cat #ab7817), anti-MyoD antibody (1:1000; cat #sc377460), anti-collagen|antibody (1:1000; abcam cat #ab21286), anti-cleaved caspase-3 antibody (1:1000; Cell Signaling, cat #9661), anti-bax antibody (1:500; Santa Cruz, cat #sc493), anti-bcl2 antibody (1:1000; Novus Biologics, cat #NB100-56098), anti-ChAT antibody (1:1000; Millipore, cat #AB144) were treated and incubated overnight at 4° C. Subsequently, membranes were washed several times with 1×TBST and incubated with horseradish peroxidase-conjugated secondary antibodies (anti-mouse, rabbit or goat, 1:5000; GE Healthcare) in blocking buffer for 1 h at room temperature (RT). The membranes were then washed, briefly incubated with the SuperSignal West Pico Plus Chemical Substructure (Pierce Biotechnology) according to the manufacturer's procedure, and quantified with an image analyzer (Amersham Pharmacia Biotech, Piscataway, NJ, USA). β-actin was used as an internal control group. The concentration measurement of protein intensity was quantified using Image J (National Institutes of Health).
Specifically, halofuginone was administered to G93A mutant SOD1 mice in the same manner as described in Example 6, and ROM measurement of the knee joint was performed in the same manner as described in Example 10 (FIG. 8a). In addition, Western blot analysis was performed in the same manner as the method described in Example 12 using knee joint tissue to confirm p-Smad2, Smad2, TGF-β1, α-SMA, MyoD, and collagen I protein expression (FIG. 8b).

O=C(C[C@H]1NCCC[C@@H]1O)Cn1cnc2cc(Br)c(Cl)cc2c1=O (racemic) [halofuginone]
elevated Col-I protein expression [1]: attenuated
elevated TGF-β protein expression [1]: attenuated
elevated p-Smad2/Smad2 ratio [1]: attenuated
elevated α-SMA protein expression [1]: attenuated
Col-1 expression level in knee joint tissue [2]: rather reduced
MyoD expression level in knee joint tissue [2]: preserved similarly
TGF-β1 expression level in knee joint tissue [2]: preserved similarly
p-Smad2/Smad2 ratio in knee joint tissue [2]: preserved similarly
α-SMA expression level in knee joint tissue [2]: preserved similarly
